Measured values taken from the supplement of paper PMC11579375.

Assays:
Experiment in all cases: area under the viability dose-response curve (AUC) (AUC (arbitrary units, max 500 = no viability loss)); higher = less sensitive (higher viability)
Conditions in all cases: exposure time: 120 h; concentration range: 0.1 nM - 10 µM, 6 doses
10F2 = system: 10F2 (fetal-II hepatoblastoma organoid with high liver markers)
Experimental: (§1)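 Patient-derived hepatoblastoma tumor organoids (about 50 organoids per well, 384-well plates, medium with 5% BME) were treated with the PMC pediatric cancer drug library. Each drug was tested in duplicate at 6 concentrations (0.1 nM to 10 µM, 10-fold steps).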

135F2 = system: 135F2 (fetal-II hepatoblastoma organoid with high liver markers)
Experimental: as §1

13E = system: 13E (embryonal-type hepatoblastoma organoid)
Experimental: as §1

13F2 = system: 13F2 (fetal-II hepatoblastoma organoid with high liver markers)
Experimental: as §1

17E = system: 17E (embryonal-type hepatoblastoma organoid)
Experimental: as §1

17F1 = system: 17F1 (fetal-I hepatoblastoma organoid with intermediate liver markers)
Experimental: as §1

22E = system: 22E (embryonal-type hepatoblastoma organoid)
Experimental: as §1

27F1 = system: 27F1 (fetal-I hepatoblastoma organoid with intermediate liver markers)
Experimental: as §1

3E = system: 3E (embryonal-type hepatoblastoma organoid)
Experimental: as §1

8F1 = system: 8F1 (fetal-I hepatoblastoma organoid with intermediate liver markers)
Experimental: as §1

96F1 = system: 96F1 (fetal-I hepatoblastoma organoid with intermediate liver markers)
Experimental: as §1

Compound | area under the viability dose-response curve (10F2) | area under the viability dose-response curve (135F2) | area under the viability dose-response curve (13E) | area under the viability dose-response curve (13F2) | area under the viability dose-response curve (17E) | area under the viability dose-response curve (17F1) | area under the viability dose-response curve (22E) | area under the viability dose-response curve (27F1) | area under the viability dose-response curve (3E) | area under the viability dose-response curve (8F1) | area under the viability dose-response curve (96F1)
COc1cc(Nc2ncc3c(n2)-c2ccc(Cl)cc2C(c2c(F)cccc2OC)=NC3)ccc1C(=O)O [Alisertib] | 325 | 369 | 381 | 310 | 339 | 494 | 382 | 436 | 328 | 473 | 416
CN1CC[C@@H](NC(=O)Nc2ccc(C#N)cc2)C[C@@H]1c1nc2ccccc2[nH]1 [Glasdegib] | 448 | > 500 | > 500 | > 500 | > 500 | 497 | > 500 | > 500 | > 500 | > 500 | > 500
CNc1nc(-c2nc3ccc(N4CCN(C)CC4)cc3n2Cc2ccccc2)cn2c(C)nnc12 | 328 | 309 | 411 | 260 | 433 | 460 | 415 | 479 | 321 | > 500 | 492
CNC(=O)c1ccc(Nc2ncc(C(F)(F)F)c(NCc3nccnc3N(C)S(C)(=O)=O)n2)cc1 [Defactinib] | 465 | 454 | 443 | 442 | 449 | 466 | 469 | 455 | 454 | 466 | 443
Cc1nc(Nc2ncc(C(=O)Nc3c(C)cccc3Cl)s2)cc(N2CCN(CCO)CC2)n1 [Dasatinib] | 473 | 458 | 397 | 379 | 463 | 488 | 461 | 488 | 315 | 473 | 479
N[C@@H](Cc1ccc(N(CCCl)CCCl)cc1)C(=O)O [Melphalan] | 414 | 469 | 417 | 436 | 434 | > 500 | > 500 | > 500 | > 500 | 483 | 467
CC(C)N(C[C@H]1O[C@@H](n2cnc3c(N)ncnc32)[C@H](O)[C@@H]1O)[C@H]1C[C@@H](CCc2nc3cc(C(C)(C)C)ccc3[nH]2)C1 [Pinometostat] | 432 | 489 | 493 | 486 | 453 | 472 | > 500 | 490 | > 500 | 497 | 469
COc1cc(CCc2cc(NC(=O)c3ccc(N4CC(C)NC(C)C4)cc3)n[nH]2)cc(OC)c1 (centres undefined) [AZD4547] | 476 | 471 | 375 | 376 | 338 | 480 | 370 | > 500 | 308 | > 500 | 475
Cc1ccc2c(Nc3cccc(Cl)c3F)nccc2c1NC(=O)c1csc2c(N)ncnc12 [Belvarafenib] | 334 | 389 | > 500 | 407 | 499 | > 500 | 474 | 484 | 497 | > 500 | > 500
Cc1cc(Nc2ncc(Cl)c(Nc3ccccc3S(=O)(=O)C(C)C)n2)c(OC(C)C)cc1C1CCNCC1 [Ceritinib] | 356 | 373 | 381 | 349 | 368 | 446 | 375 | 432 | 351 | 441 | 413
CN1CCN(CCOc2cc(OC3CCOCC3)c3c(Nc4c(Cl)ccc5c4OCO5)ncnc3c2)CC1 [Saracatinib] | 422 | 478 | 464 | 415 | 455 | 493 | 477 | 381 | 492 | 475 | 466
Cc1c(-c2c(-c3ccc(F)o3)sc3ncnc(O[C@H](Cc4ccccc4OCc4ccnn4CC(F)(F)F)C(=O)O)c23)ccc(OCCN2CCN(C)CC2)c1Cl | 185 | 351 | 367 | 239 | 370 | > 500 | 388 | 428 | 234 | 485 | > 500
Nc1ncccc1-c1nc2ccc(-c3ccccc3)nc2n1-c1ccc(C2(N)CCC2)cc1 [Miransertib] | 446 | 429 | 421 | 422 | 365 | 494 | 387 | 447 | 338 | 428 | 433
O=C(c1ccc(F)c(F)c1Nc1ccc(I)cc1F)N1CC(O)([C@@H]2CCCCN2)C1 [Cobimetinib] | 220 | 300 | 429 | 266 | 362 | 438 | 448 | 381 | 372 | 455 | 430
CCCS(=O)(=O)Nc1ccc(F)c(C(=O)c2c[nH]c3ncc(-c4ccc(Cl)cc4)cc23)c1F [Vemurafenib] | 395 | 498 | 475 | 440 | 496 | 499 | 447 | 499 | 490 | 495 | 490
CC1=C(/C=C/C(C)=C/C=C/C(C)=C/C(=O)Nc2ccc(O)cc2)C(C)(C)CCC1 [Fenretinide] | 418 | 430 | 446 | 469 | 426 | 443 | 418 | 484 | 386 | 470 | 430
Cc1ncc(Cl)cc1NCc1ccc(C(=O)N[C@@H](CC2CCCC2)C(=O)NC2CC2)s1 | 491 | 476 | > 500 | 468 | > 500 | > 500 | > 500 | 488 | 456 | > 500 | > 500

Compound | area under the viability dose-response curve (10F2) | area under the viability dose-response curve (135F2) | area under the viability dose-response curve (13E) | area under the viability dose-response curve (13F2) | area under the viability dose-response curve (17E) | area under the viability dose-response curve (17F1) | area under the viability dose-response curve (22E) | area under the viability dose-response curve (27F1) | area under the viability dose-response curve (3E) | area under the viability dose-response curve (8F1) | area under the viability dose-response curve (96F1)
COc1cc(N2CCC(N3CCN(C)CC3)CC2)ccc1Nc1ncc(Cl)c(Nc2ccccc2P(C)(C)=O)n1 [Brigatinib] | 399 | 392 | 402 | 388 | 398 | 426 | 381 | 420 | 349 | 454 | 427
Cc1[nH]c2ccccc2c1CCNCc1ccc(/C=C/C(=O)NO)cc1 [Panobinostat] | 166 | 248 | 294 | 220 | 218 | 271 | 319 | 296 | 210 | 325 | 290
CS(=O)(=O)N1CCN(Cc2cc3nc(-c4cccc5[nH]ncc45)nc(N4CCOCC4)c3s2)CC1 [Pictilisib] | 391 | 411 | 413 | 365 | 350 | 493 | 404 | 376 | 380 | 482 | 422
CC[C@]1(O)C[C@@H]2CN(CCc3c([nH]c4ccccc34)[C@@](C(=O)OC)(c3cc4c(cc3OC)N(C)[C@H]3[C@@](O)(C(=O)OC)[C@H](OC(C)=O)[C@]5(CC)C=CCN6CC[C@]43[C@@H]65)C2)C1 [Vinblastine] | 160 | 176 | 164 | 189 | 183 | 208 | 223 | 194 | 148 | 220 | 156
C=CC(=O)N1C[C@H](Nc2ncnc3[nH]ccc23)CC[C@@H]1C | 426 | 471 | > 500 | 460 | > 500 | 488 | > 500 | > 500 | 463 | 495 | 482
O=C(NOC[C@H](O)CO)c1ccc(F)c(F)c1Nc1ccc(I)cc1F | 262 | 376 | 490 | 325 | 471 | 480 | 481 | 447 | 488 | > 500 | 461
C#Cc1cccc(Nc2ncnc3cc(OCCOC)c(OCCOC)cc23)c1 [Erlotinib] | 311 | 469 | 488 | 360 | 448 | 448 | 485 | 423 | 476 | 463 | 415
C[C@@H](Oc1cc(-n2cnc3ccc(CN4CCN(C)CC4)cc32)sc1C(N)=O)c1ccccc1C(F)(F)F | 250 | 254 | 262 | 268 | 277 | 276 | 256 | 262 | 246 | 358 | 361
FC(F)(F)c1ccc(/C=C/c2nc(COc3ccc(CCCCn4ccnn4)cc3)co2)cc1 [Mubritinib] | 438 | 334 | 339 | 264 | 419 | 245 | 449 | 335 | 429 | 263 | 269
C[C@]12CCCN1CC1=NNC(=O)c3cc(F)cc4[nH]c2c1c34 [Pamiparib] | 439 | 478 | 481 | 443 | > 500 | > 500 | 473 | 487 | 459 | 479 | 494
C[C@@H]1C[C@H]2[C@@H]3CCC4=CC(=O)C=C[C@]4(C)[C@@]3(F)[C@@H](O)C[C@]2(C)[C@@]1(O)C(=O)CO [Dexamethasone] | > 500 | 472 | 473 | 494 | > 500 | 477 | 497 | > 500 | > 500 | 484 | > 500
Nc1ccccc1NC(=O)c1ccc(CNC(=O)OCc2cccnc2)cc1 [Entinostat] | 358 | 455 | 425 | 429 | 428 | 434 | 439 | 462 | 386 | 426 | 483
CCC(CC)(NC(=O)C(C)C)C(=O)N[C@@H](CCCN=C(N)N)C(=O)NC1(C(=O)NC(c2ccc(F)cc2)c2ccc(F)cc2)CCCC1 [MM102] | 445 | 497 | > 500 | 482 | > 500 | 486 | 464 | 493 | > 500 | > 500 | 485
NS(=O)(=O)OC[C@@H]1C[C@@H](n2ccc3c(N[C@H]4CCc5ccccc54)ncnc32)C[C@@H]1O [Pevonedistat] | 425 | 342 | 451 | 329 | 383 | 400 | 470 | 333 | 448 | 445 | 381
Cc1ccc(NC(=O)c2ccc(CN3CCN(C)CC3)cc2)cc1Nc1nccc(-c2cccnc2)n1 [Imatinib] | 488 | 478 | 499 | 498 | 496 | 478 | 500 | 481 | 487 | 483 | 498
CCN(c1cc(-c2ccc(CN3CCOCC3)cc2)cc(C(=O)NCc2c(C)cc(C)[nH]c2=O)c1C)C1CCOCC1 [Tazemetostat] | 448 | 473 | 479 | 360 | 415 | 482 | 481 | 475 | 461 | > 500 | 473
CNCc1ccc(-c2cc(-c3nc(-c4ccc(S(=O)(=O)C(C)C)cc4)cnc3N)on2)cc1 [Berzosertib] | 411 | 391 | 461 | 401 | 444 | > 500 | 473 | 498 | 391 | 499 | 459
